# Experimental data published in ChEMBL document CHEMBL5325392, “Development of 3α,7α-dihydroxy-6α-ethyl-24-nor-5β-cholan-23-sulfate sodium salt (INT-767): Process optimization, synthesis and characterization of metabolites” (Eur J Med Chem, 2022).
# How the values were obtained:
# [1] = molecular target: T1, Bile acid receptor (Homo sapiens) (UniProt Q96RI1); experiment: Agonist activity at glutathione transferase-tagged human FXR ligand binding domain assessed as biotinylated Src1 peptide recruitment incubated for 30 mins by AlphaScreen assay relative to CDCA; details: filed as agonist
# T1 sequence (whole entry): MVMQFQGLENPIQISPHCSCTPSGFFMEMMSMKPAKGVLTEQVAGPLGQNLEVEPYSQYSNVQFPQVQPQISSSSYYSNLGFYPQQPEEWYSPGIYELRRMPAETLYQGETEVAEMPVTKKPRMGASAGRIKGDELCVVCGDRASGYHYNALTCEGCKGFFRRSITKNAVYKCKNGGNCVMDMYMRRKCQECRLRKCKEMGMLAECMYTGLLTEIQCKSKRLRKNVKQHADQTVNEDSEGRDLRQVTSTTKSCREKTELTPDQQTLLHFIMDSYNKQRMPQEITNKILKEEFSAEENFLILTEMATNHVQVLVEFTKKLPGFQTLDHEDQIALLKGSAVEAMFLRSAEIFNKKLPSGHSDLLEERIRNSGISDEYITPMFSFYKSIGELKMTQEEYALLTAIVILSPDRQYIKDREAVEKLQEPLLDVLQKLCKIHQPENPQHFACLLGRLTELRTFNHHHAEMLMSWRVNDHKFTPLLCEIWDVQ
# [2] = molecular target: T2, G-protein coupled bile acid receptor 1 (Homo sapiens, UniProt Q8TDU6); experiment: Agonist activity at TGR5 receptor in human NCI-H716 cells assessed as activation of intracellular cAMP production incubated for 1 hr by HTR-FRET assay; type: functional, cell-based
# T2 sequence (Q8TDU6 whole entry): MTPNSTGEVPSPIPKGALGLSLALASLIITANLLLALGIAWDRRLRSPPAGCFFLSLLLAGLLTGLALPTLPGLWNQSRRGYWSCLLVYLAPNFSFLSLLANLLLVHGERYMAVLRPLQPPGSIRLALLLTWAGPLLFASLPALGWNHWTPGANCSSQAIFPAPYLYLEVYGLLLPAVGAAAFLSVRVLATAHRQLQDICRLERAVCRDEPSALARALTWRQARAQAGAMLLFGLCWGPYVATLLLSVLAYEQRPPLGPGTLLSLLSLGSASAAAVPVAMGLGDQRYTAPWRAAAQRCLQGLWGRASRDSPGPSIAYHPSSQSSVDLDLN
# Bile acid receptor = molecular target: T3, Bile acid receptor (Homo sapiens, UniProt Q96RI1); experiment: Agonist activity at glutathione transferase-tagged human FXR ligand binding domain assessed as biotinylated Src1 peptide recruitment incubated for 30 mins by AlphaScreen assay
# T3 sequence (Q96RI1 whole entry): T1 sequence (whole entry)
Efficacy [1],EC50 [2],EC50 (Bile acid receptor),Structure (SMILES)
115%,> 100 µM,5000 nM,CC[C@H]1[C@@H](O)[C@@H]2[C@H](CC[C@]3(C)[C@@H]([C@H](C)CCOS(=O)(=O)O)CC[C@@H]23)[C@@]2(C)CC[C@@H](O[C@@H]3O[C@H](CC(=O)O)[C@@H](O)[C@H](O)[C@H]3O)C[C@@H]12
,> 100 µM,> 100000 nM,CC[C@H]1[C@@H](O)[C@@H]2[C@H](CC[C@]3(C)[C@@H]([C@H](C)CCOS(=O)(=O)O)CC[C@@H]23)[C@@]2(C)CC[C@@H](OS(=O)(=O)O)C[C@@H]12
162%,5 µM,80 nM,CC[C@H]1[C@@H](O)[C@@H]2[C@H](CC[C@]3(C)[C@@H]([C@H](C)CCOS(=O)(=O)O)CC[C@@H]23)[C@@]2(C)CCC(=O)C[C@@H]12

Structure (SMILES),Efficacy [1],EC50 [2],EC50 (Bile acid receptor)
CC[C@H]1[C@@H](O)[C@@H]2[C@H](CC[C@]3(C)[C@@H]([C@H](C)CCO)CC[C@@H]23)[C@@]2(C)CC[C@@H](O)C[C@@H]12,165%,1.1 µM,1200 nM
